According to US11903998B2, “Compositions and methods of treating cancer using lipid agonists and receptors thereof” (Forsyth Dental Infirmary for Children, priority 2016, dated 2024):
Read-outs that look alike come from different tables or passages of the source.

Tests used:
IL-8 = experiment: Multiplex bead array cytokine level in tumor tissue; format: in vivo, mice; settings: RvE1 pre-treatment, mean ± SEM
Protocol: (§1) Inflammation is driven by soluble factors that are produced by tumor cells and by the cells recruited to the tumor microenvironment. […] Cytokine levels were measured using a multiplex bead array assay kit for Luminex purchased from Millipore to measure the following cytokines: G-CSF, IL-10, IL-6, IL-8, IL-12, TNF □, as per the manufacturer's instructions using a Luminex 100 instrument. Appropriate dilutions of the samples in assay diluent were made as required. Each sample was assayed in duplicate and cytokine standards supplied by the manufacturer were used to calculate the concentrations in the samples. Cytokine levels are expressed in pg/ml.

TNF-α = experiment: as above; format: in vivo, mice; settings: RvE1 pre-treatment, mean ± SEM
Protocol: as §1

G-CSF = experiment: as above; format: in vivo, mice; settings: RvE1 pre-treatment, mean ± SEM
Protocol: as §1

COX-2 [1] = experiment: COX-2 expression, RvE1 and cisplatin xenograft model; format: in vivo, mice
VEGF = VEGF expression in tumor tissue (immunohistochemistry and PCR); format: in vivo, mice; settings: p<0.001
Protocol: (§2) In order to identify tumor cell proliferation and angiogenesis markers, the expression of Ki67 as a marker of proliferation and CD31, CD34 and VEGF as markers of vascularization was analyzed by immunohistochemistry. Briefly, 5 μm thick sections were de-paraffinized and rehydrated with serial alcohol solutions. Antigen retrieval was performed by incubating the sections in 10 mM sodium citrate (pH 6.0) in a microwave oven first for 5 min at 720 W, then 3 min at 450 W and finally 2 min at 180 W. Endogenous peroxidase activity was quenched by incubating the slides with 3% H2O2 (in methanol) for 20 minutes at 4° C. followed by blocking with 2% BSA for 30 minutes at room temperature. The sections were then incubated with antibodies to Ki67, CD31, CD34 and VEGF (1:100 dilution) overnight at 4° C. in a humidified chamber. Sections were incubated with ABC reagent VACTASTAIN Elite ABC Standard Kit (PK-6100). The immune reactions were visualized using 3,3-diaminobenzidine tetra hydrochloride (DAB). DAB-stained slides were counterstained lightly with hematoxylin. Slides were dehydrated and mounted with Permount for analysis. Images were acquired and analyzed using the Nikon Eclipse 80i microscope (Japan) and Northern Eclipse imaging Elements-D (NIS-D) software. The results are expressed as percent of total positive cells.
In order to analyze the impact of RvE1 on inflammation and angiogenesis, the expression of NF-κB, COX-2, VEGF, Ang-1 and Ang-2 was examined by quantitative real-time PCR. […] Quantification of RNA was determined using NanoDrop 1000 (Thermo Fisher Scientific, Wilmington, DE). […] For quantitative RT-PCR analysis, oligonucleotides for NF-κB, COX-2, VEGF, Ang-1, Ang-2 and GAPDH were chosen from predesigned assays. […] The fluorescence of the double-stranded products was monitored in real time. The cDNA was amplified and quantified using Sequence Detection System (SDS) 7000 (Applied Biosystems). The 2^(ΔΔCt) (Ct value of target gene minus Ct value of housekeeping gene) method was used to calculate relative quantity fold-change. […]

NF-κB [2] = experiment: NF-κB expression, RvE1 and cisplatin xenograft model; format: in vivo, mice
lung cancer [3] = experiment: Orthotopic model of lung cancer, RvE1; format: in vivo
NF-κB [4] = experiment: Quantitative mRNA expression in tumor tissue (qPCR); format: in vivo, mice; settings: p<0.001
Protocol: (§3) In order to analyze the impact of RvE1 on inflammation and angiogenesis, the expression of NF-κB, COX-2, VEGF, Ang-1 and Ang-2 was examined by quantitative real-time PCR. Total cellular RNA was extracted from tumor tissue (stored in RNAlater solution) using TriZol reagent. Quantification of RNA was determined using NanoDrop 1000 (Thermo Fisher Scientific, Wilmington, DE). RNA samples were stored at −80° C. until use. The first-strand cDNA was synthesized with High Capacity cDNA Archive kit (Applied Biosystems, Foster City, CA, USA) according to the manufacturer's instructions. For quantitative RT-PCR analysis, oligonucleotides for NF-κB, COX-2, VEGF, Ang-1, Ang-2 and GAPDH were chosen from predesigned assays. Thermal cycling included initial steps at 50° C. for 2 min and at 95° C. for 10 min, followed by 40 cycles at 95° C. for 15 s and at 60° C. for 1 min. The fluorescence of the double-stranded products was monitored in real time. The cDNA was amplified and quantified using Sequence Detection System (SDS) 7000 (Applied Biosystems). The 2^(ΔΔCt) (Ct value of target gene minus Ct value of housekeeping gene) method was used to calculate relative quantity fold-change. GAPDH was used as the housekeeping gene. The data is from 3 independent experiments performed in triplicate.

Ang1 = experiment: as above; format: in vivo, mice; settings: p<0.001
Protocol: as §3

COX-2 [5] = experiment: as above; format: in vivo, mice; settings: p<0.001
Protocol: as §3

[6] = tested on: LA-P0297 lung cancer cells; experiment: Histological analysis of tumor tissue (hematoxylin and eosin); format: in vivo, mice
From the text: To examine the microscopic alterations in the tumor tissue, tissues were fixed in 10% formalin, paraffin embedded, sectioned (5 μm) and stained with hematoxylin and eosin. Images were photographed and enlarged for evaluation.

Ang2 = experiment: Quantitative mRNA expression in tumor tissue (qPCR); format: in vivo; settings: both Wt and Tg mice vs controls and vehicle groups, p<0.001
Protocol: as §3

lung cancer [7] = experiment: RvE1 and cisplatin in xenograft model of lung cancer
COX2 = COX2 expression, orthotopic model of lung cancer; format: in vivo
IL-1α = experiment: Multiplex bead array cytokine level in tumor tissue; format: in vivo; settings: Wt mice, RvE1 pre-treatment, mean ± SEM
lung cancer [8] = settings: mouse, in vivo
IL-12 = experiment: Multiplex bead array cytokine level in tumor tissue; format: in vivo; settings: Wt mice, RvE1 pre-treatment, mean ± SEM
Protocol: as §1

IL-6 = experiment: as above; format: in vivo; settings: Wt mice, RvE1 pre-treatment, mean ± SEM
Protocol: as §1

Ki67 = experiment: Immunohistochemistry of tumor tissue, proliferation marker; format: in vivo, mice
Protocol: as §2

CD34 = experiment: Immunohistochemistry of tumor tissue, vascularization marker CD34; format: in vivo, mice
Protocol: as §2

CD31 = experiment: Immunohistochemistry of tumor tissue, vascularization marker CD31; format: in vivo; settings: both Wt and Tg mice vs respective controls and vehicle groups
Protocol: as §2

[9] = tested on: LA-P0297 lung cancer cells; format: in vivo, mice; settings: for No tumor / Tumor developed (number of mice): total 6; for No tumor / Tumor developed (number of mice) / Necrosis: RvE1 pre-treatment; for Necrosis: cell wraps: Started on 18th day
From the text: ERV1-transgenic mice (Tg) were engineered as previously described (Gao et al., 2013). In brief, the full-length of hCD11b promoter cDNA was cloned upstream of the full-length chemR23 cDNA (GenBank accession: www.ncbi.nlm.nih.gov/nuccore/NM_004072). For genotyping, genomic DNA was collected from ear punch biopsies of mice and screened by PCR with primers directed to mouse ERV1 (forward primer 5′-CTCGGTCTCCTAGGCAAC-3′) and human ERV1 (forward primer 5′-GTCTTCCTCCCAATCCAT-3′). The mouse and human ERV1 amplicons share the same reverse primer (5′-TAGAAAGCCAGGACCCAG-3′). FVB Wild type female mice (Wt) were purchased from Jackson Laboratories (Bar Harbor, ME). All animals were housed under specific pathogen-free conditions, received standard laboratory chow diet and water ad libitum. All animal experiments were approved by the Institutional Animal Care and Use Committee (IACUC) at the Forsyth Institute and were performed in conformance to the standards of the Public Health Service Policy on Humane Care and Use of Laboratory Animals. The animals were acclimatized before being used in the experimental study.
After one week of acclimatization, all animals received an injection of 1×10^6 LA-P0297 lung cancer cells subcutaneous in the right flank. Both Wt (n=18) and Tg (n=18) animals were randomly divided into 3 experimental groups: un-treated controls; 100 ng of RvE1 diluted in PBS injected intraperitoneal daily for the first 6 days and weekly thereafter for 3 weeks; vehicle, which was 5% ethanol diluted in PBS. RvE1 was stored in 100% ethanol and diluted in PBS immediately before use. RvE1 and vehicle were administered 30 minutes before the injection of cancer cells. Animals were checked routinely for body weight and growth of tumors on the skin. Tumor volume was measured using a Vernier caliper (Mitutoyo, Japan) and calculated using the following formula: V=½(L×W^2) where L=length and W=width. After 28 days, the animals were euthanized by CO2 asphyxia; tumor tissues were collected and stored for histological and molecular analyses.

lung cancer [10] = experiment: LXA4 and xenograft model of lung cancer; format: in vivo
COX-2 [11] = experiment: COX-2 expression, LXA4 xenograft model of lung cancer; format: in vivo; settings: LXA4-treatment group
[12] = RvE1 added to cisplatin, WT and TG animals
[13] = Tg mice vs control and vehicle animals
[14] = Wt mice vs control and vehicle animals
[15] = cisplatin, WT and TG mice, p<0.001

CC[C@@H](O)/C=C/C=C\C[C@@H](O)/C=C/C=C/C=C\[C@@H](O)CCCC(=O)O [RvE1, Resolvin E1]
IL-8 level in tumor tissue (IL-8; Tg mice): 692.61 pg/mL
IL-8 level in tumor tissue (IL-8; Wt mice): 2629.41 ± 263.3 pg/mL
TNF-α level in tumor tissue (TNF-α; Tg mice): 10.06 ± 2.1 ^¥¥ pg/ml
TNF-α level in tumor tissue (TNF-α; Wt mice): 13.23 pg/mL
G-CSF level in tumor tissue (G-CSF; Tg mice): 1156.31 pg/mL
G-CSF level in tumor tissue (G-CSF; Wt mice): 1624.28 ± 170.8 pg/mL
Suppression (reduction) of COX-2 expression compared to cisplatin alone (COX-2 [1]; [12]): increased the suppression
VEGF expression reduction (VEGF; [13]): 7 fold
VEGF expression reduction (VEGF; [14]): 5 fold
Decrease of VEGF expression, Tg mice compared to Wt mice treated with RvE1 (VEGF): more significant
Suppression (reduction) of NF-κB expression compared to cisplatin alone (NF-κB [2]; [12]): increased the suppression
Histological findings in lungs (lung cancer [3]; RvE1 vs control groups): decreased tumor density, vascularization, and inflammatory infiltration with increased necrosis
Number of nodules in the lung over 2 weeks (lung cancer [3]; TG+RvE1 (TG control 8-10)): 3-5 nodules
Survival over 2 weeks (lung cancer [3]; TG+RvE1 (TG control 25%)): 80%
Number of nodules in the lung over 2 weeks (lung cancer [3]; WT+RvE1 (WT control 8-10)): 4-6 nodules
Survival over 2 weeks (lung cancer [3]; WT+RvE1 (WT control 25%)): 40%
NF-κB expression reduction (NF-κB [4]; [13]): 7.6 fold
NF-κB expression reduction (NF-κB [4]; [14]): 4 fold
Ang1 expression (Ang1; both Wt and Tg mice vs controls and vehicle groups): significantly decreased
Decrease in Ang1 expression, Tg mice compared to Wt animals (Ang1): more significant
COX-2 mRNA decrease (COX-2 [5]; Tg mice vs controls and vehicle groups): 8 fold
COX-2 mRNA decrease (COX-2 [5]; Wt mice vs controls and vehicle groups): 6 fold
Microscopic alterations of tumor tissue ([6]; RvE1-treated Wt and Tg animals): extensive necrosis
Necrosis, RvE1 treated Tg mice compared to Wt mice ([6]; Tg vs Wt): more prominent
Ang2 expression (Ang2): significantly decreased
Tumor volume compared to cisplatin alone (lung cancer [7]; RvE1 added to cisplatin, both WT and TG animals, p<0.001): significantly and further reduced
Tumor volume compared to the non-treated and WT groups (lung cancer [7]; TG animals treated with cisplatin and additional RvE1): markedly reduced tumor volume
Reduction of the expression of COX2 (COX2; both groups (WT and TG)): 6 fold
Reduction of expression (printed in the COX2 sentence) (COX2; only in the TG animals): 6-7 fold
IL-1α level in tumor tissue (IL-1α): 177.94 ± 15.7 pg/mL
Signs of toxicity (behavioral changes; eating, drinking habits and movement) (lung cancer [8]): None of the animals exhibited any signs of toxicity
IL-12 level in tumor tissue (IL-12): 46.73 ± 4.7 pg/mL
IL-6 level in tumor tissue (IL-6): 52.06 pg/mL
Reduction in the expression of Ki67, RvE1 treated Tg mice compared to Wt mice treated with RvE1 (Ki67; Tg vs Wt): significantly (p<0.01) higher
Ki67-positive cells (Ki67; both Wt and Tg groups vs vehicle and control groups): significant (p<0.001) reduction
CD34 positive cells (CD34; both Wt and Tg mice vs respective controls and vehicle groups): significantly (p<0.001) reduced
Reduction of CD34 expression in tumor tissues, Tg animals vs Wt animals (CD34; p<0.01): significantly more
CD31 positive cells (CD31): significantly (p<0.001) reduced
Necrosis seen on the surface of tumors, from day ([9]; RvE1 treated groups): 19 days
No tumor ([9]; Tg mice): 3
Tumor developed (number of mice) ([9]; Tg mice): 3
Necrosis ([9]; Tg mice): Started
No tumor ([9]; Wt mice): Weak
Tumor developed (number of mice) ([9]; Wt mice): 4
Necrosis ([9]; Wt mice): Started
Tumor size ([9]; both Wt and Tg animals vs vehicle and control groups, p<0.001): reduced significantly
Body weight ([9]; mouse, in vivo): no significant difference
Signs of toxicity (behavioral changes; eating, drinking habits and movement) ([9]; mouse, in vivo): None of the animals exhibited any signs of toxicity
Tumor appearance ([9]; vs tumors of animals not treated with RvE1 (solid and rigid)): very soft and pulpous

CCCCC[C@H](O)/C=C/C=C\C=C\C=C\[C@@H](O)[C@@H](O)CCCC(=O)O [LXA4, lipoxin A4]
Necrosis, center of the tumor tissue (lung cancer [10]; LXA4-treated group vs WT-vehicle control, 4 weeks): highly necrotic
Inflammatory infiltration (lung cancer [10]; LXA4 group vs vehicle): no sign of inflammatory infiltration
Tumor volume (lung cancer [10]; LXA4 vs vehicle group over 4 weeks): reduced the tumor volume significantly
Body weight (lung cancer [10]; LXA4 vs vehicle, 4 weeks): No change
COX-2 expression (COX-2 [11]): significantly decreased

N.N.[Cl][Pt][Cl] [cisplatin]
COX-2 expression (COX-2 [1]; [15]): reduced
NF-κB expression (NF-κB [2]; [15]): reduced
Tumor volume (lung cancer [7]; cisplatin): reduced tumor volume
Decrease of tumor growth compared to control groups (lung cancer [7]; cisplatin, both WT and TG groups): more than 10 fold
Body weight (lung cancer [7]; cisplatin-alone group): lost weight after the first 2 weeks
